Patent US10053422B2, “Compounds for the treatment of mTOR pathway related diseases” (Pitney Pharmaceuticals Pty Limited, priority 2012, dated 2018)
“Also recorded” adds a separate entry of the source. Like-named read-outs stand apart in the source and are kept apart here.

Experiments:
[1] = system: HUVEC (human umbilical vein endothelial cells); assay: SRB cell proliferation assay, HUVEC; assay type: cell-based
Method: (§1) Cell proliferation was assessed using the sulforhodamine B (SRB) assay. Cells seeded in 96-well plate (2,000-3,000 cell/well) were treated with MPL (0, 1, 5, 10, 25, 50 and 100 μmol/L) for 72 h. Cells were then fixed, washed and stained with 100 μl of 0.4% (w/v) SRB dissolved in 1% acetic acid. Unbound dye was removed by five washes with 1% acetic acid before air drying. Bound SRB was solubilized with 100 μl of 10 mM Tris base (pH 10.5) and the absorbance read at 570 nm. Exactly the same procedure was used to assess MPL-SO2. Both agents were dissolved in ethanol and diluted with media to give the final concentrations required for cell culture assays.

OVCAR-3 cells = assay: SRB cell proliferation assay, OVCAR-3; assay type: cell-based, human
Method: as §1

[2] = system: CHO (Chinese hamster ovarian cells); assay: SRB cell proliferation assay, CHO; assay type: cell-based; conditions: Cricetulus griseus
Method: as §1

A2780 cells = assay: SRB cell proliferation assay, A2780; assay type: cell-based, human
Method: as §1

nematodes = conditions: previously shown; cited from earlier work
1A9 cells = assay: SRB cell proliferation assay, 1A9; assay type: cell-based; conditions: Homo sapiens
Method: as §1

HaCat keratinocyte = assay: SRB cell proliferation assay, HaCat; assay type: cell-based; conditions: Homo sapiens, keratinocyte (Table 2), read-out: IC50 in suppressing proliferation
Method: as §1

T47-D cells = assay: SRB cell proliferation assay, T47-D; assay type: cell-based; conditions: Homo sapiens, T47D, breast cancer (Table 2), read-out: IC50 in suppressing proliferation
Method: as §1

MCF-7 cells = assay: SRB cell proliferation assay, MCF-7; assay type: cell-based; conditions: Homo sapiens, MCF7
Method: as §1

cancer cell lines = assay: SRB cell proliferation assay, range of cancer cell lines (general statements); assay type: cell-based
Method: as §1
In brief, MPL and MPL-SO2 were tested in vitro against a wide range of cancer cell-lines with extensively different disease characteristics. For further detailed studies, human ovarian cancer cell lines OVCAR-3 and A2780 were chosen. Additionally, normal human ovarian surface epithelial cells (HOSE) and were cultured in the presence of MPL (0, 5, 10, 25, 50 and 100 μM) for 72 h. Cell viability was assessed using Trypan blue assay (FIG. 9). Similarly, effect of MPL on the growth of normal epithelial, endothelial, embryonic and fetal cells were investigated (FIG. 10) while cell proliferation was assessed using the SRB assay (FIG. 11). Control (vehicle treated) cells were taken to present 100% proliferation and the MPL treated groups are expressed as percentage of control±SEM. Each drug concentration was tested in quadruplicate and each experiment was repeated at least twice. For statistical comparisons, each drug treated group is compared to the control group using Student's t test. To examine concentration dependent drug effect, analysis of variance (ANOVA) was used. P values are: *=<0.05; **<0.01 and ***=<0.001, **** p<0.0001. […] In order to find out if the MPL effect is mediated through the nicotinic acetyl choline receptor and in particular the nACHR7 subtype, cells were pretreated with antagonists and then exposed to MPL (FIG. 12).

[3] = system: HCT-116 cells (colorectal cancer); assay: SRB cell proliferation assay, HCT-116; assay type: cell-based; conditions: Homo sapiens; HCT-116, colorectal cancer (Table 2); read-out: IC50 in suppressing proliferation
Method: as §1

U87 cells (glioblastoma) = assay: SRB cell proliferation assay, U87; assay type: cell-based; conditions: Homo sapiens, U-87 MG
Method: as §1

[4] = system: HT-29 cells (colorectal cancer); assay: SRB cell proliferation assay, HT-29; assay type: cell-based; conditions: Homo sapiens; HT-29, colorectal cancer (Table 2); read-out: IC50 in suppressing proliferation
Method: as §1

LN-18 cells (glioma) = assay: SRB cell proliferation assay, LN-18; assay type: cell-based; conditions: Homo sapiens; LN-18, glioma (Table 2); read-out: IC50 in suppressing proliferation
Method: as §1

[5] = system: HT-29 5m11 cells (colorectal cancer); assay: SRB cell proliferation assay, HT-29 5m11; assay type: cell-based; conditions: Homo sapiens; HT-29 5m11, colorectal cancer (Table 2); read-out: IC50 in suppressing proliferation
Method: as §1

MDA-MB-231 cells = assay: SRB cell proliferation assay, MDA-MB-231; assay type: cell-based; conditions: Homo sapiens
Method: as §1

SKOV-3 cells = assay: SRB cell proliferation assay, SKOV-3; assay type: cell-based; conditions: Homo sapiens, SK-OV-3
Method: as §1

T98G cells (glioma) = assay: SRB cell proliferation assay, T98G; assay type: cell-based; conditions: Homo sapiens, glioma (Table 2), read-out: IC50 in suppressing proliferation
Method: as §1

3T3 fibroblast = assay: SRB cell proliferation assay, 3T3; assay type: cell-based; conditions: 3T3, fibroblast (Table 2); read-out: IC50 in suppressing proliferation
Method: as §1

U87 glioma cells = assay: Autophagy (vacuoles, LC3-II), U87; assay type: cell-based; conditions: U87 glioma cells
Source text: Autophagy is a characteristic of mTOR inhibition.
Concentration-dependent conversion of LC3-I to LC3-II confirms the increasing phenomenon of autophagy in these cells.

IGROV-1 cells = assay: SRB cell proliferation assay, IGROV-1; assay type: cell-based; conditions: Homo sapiens; IGROV-1, ovarian cancer (Table 2); read-out: IC50 in suppressing proliferation
Method: as §1

HeLa cells = assay: SRB cell proliferation assay, HeLa; assay type: cell-based; conditions: Homo sapiens, epithelial (adenocarcinoma) (Table 2), read-out: IC50 in suppressing proliferation
Method: as §1

[6] = HUVEC = human umbilical vein endothelial cells (Table 3), read-out: IC50 μM HUVEC
[7] = OVCAR-3, human epithelial ovarian cancer (Table 3), read-out: IC50 μM OVCAR-3
[8] = CHO = Chinese hamster ovarian cells (Table 3), read-out: IC50 μM CHO
[9] = A2780, human epithelial ovarian cancer (Table 3), read-out: IC50 μM A2780

SMILES: CC(C#N)(COc1cc(F)ccc1Cl)NC(=O)c1ccc(OC(F)(F)F)cc1 (stereo not shown) [AAD 004]
- IC50 [1, 6]: 93 µM
- IC50 (OVCAR-3 cells; [7]): 18.6 ± 2.4 µM
- IC50 [2, 8]: 57.3 µM
- IC50 (A2780 cells; [9]): 27.3 ± 0.5 µM

SMILES: CC(C#N)(COc1cc(F)c(F)cc1Br)NC(=O)c1ccc(OC(F)(F)F)cc1 (stereo not shown) [AAD 1336]
- IC50 [1, 6]: 61.3 µM
- IC50 (OVCAR-3 cells; [7]): 14.7 ± 1.25 µM
- ratio of IC50 values (normal cell/cancer cell) (OVCAR-3 cells; results of Table 3): particularly high activity
- IC50 [2, 8]: 31.8 µM
- IC50 (A2780 cells; [9]): 17 ± 1.2 µM

SMILES: CC(C#N)(COc1cc(F)c(F)cc1C(F)(F)F)NC(=O)c1ccc(OC(F)(F)F)cc1 (stereo not shown) [AAD 1470]
- IC50 [1, 6]: 74 µM
- IC50 (OVCAR-3 cells; [7]): 12.9 ± 0.3 µM
- ratio of IC50 values (normal cell/cancer cell) (OVCAR-3 cells; results of Table 3): particularly high activity
- IC50 [2, 8]: 32.2 µM
- IC50 (A2780 cells; [9]): 19.5 ± 4.1 µM

SMILES: C[C@@](C#N)(COc1cc(C#N)ccc1C(F)(F)F)NC(=O)c1ccc(SC(F)(F)F)cc1 [AAD 2224, N-[(1R)-1-cyano-2-(5-cyano-2-trifluoromethyl-phenoxy)-1-methyl-ethyl]-4-trifluoromethylsulfanyl-benzamide]
- IC50 [1, 6]: 109 µM
- anthelmintic activity (nematodes): no anthelmintic activity
- IC50 (OVCAR-3 cells; [7]): 8 ± 0.7 µM
- potency of MPL-(R) compared with MPL-(S) (OVCAR-3 cells; results of Table 3): equipotent
- ratio of IC50 values (normal cell/cancer cell) (OVCAR-3 cells; results of Table 3): particularly high activity
- IC50 [2, 8]: 23.4 µM
- IC50 (A2780 cells; [9]): 14.8 ± 0.45 µM

SMILES: C[C@](C#N)(COc1cc(C#N)ccc1C(F)(F)F)NC(=O)c1ccc(S(=O)(=O)C(F)(F)F)cc1 [MPL-SO2, monepantel sulphone]
- IC50 (1A9 cells; 1A9, ovarian cancer (Table 2), read-out: IC50 in suppressing proliferation): 3.42 ± 0.1 µM
- IC50 (1A9 cells; 1A9, ovarian cancer, 72 h, SRB assay (Table 1), read-out: IC50): 4.8 µM
- IC50 (HaCat keratinocyte): 42.7 ± 8 µM
- IC50 (T47-D cells): 10.2 ± 0.6 µM
- IC50 (MCF-7 cells; MCF-7, breast cancer (Table 2), read-out: IC50 in suppressing proliferation): 8 ± 0.7 µM
- IC50 (MCF-7 cells; MCF-7, breast cancer, 72 h, SRB assay (Table 1), read-out: IC50): 7.3 µM
- IC50 ([1]; Homo sapiens, HUVEC (Table 2), read-out: IC50 in suppressing proliferation): 47 µM
- IC50 ([1]; Homo sapiens, HUVEC, 72 h, SRB assay (Table 1), read-out: IC50): 47.8 µM
- viability of cancer cell-lines growing in culture (cancer cell lines): reduced viability
- potency compared with MPL in suppressing cancer cell proliferation (cancer cell lines; SRB proliferation assay): as potent as MPL; also recorded: as effective as MPL
- IC50 [3]: 22.5 ± 5.7 µM
- IC50 (U87 cells (glioblastoma); U87, glioblastoma, 72 h, SRB assay (Table 1), read-out: IC50): 20.5 µM
- IC50 (U87 cells (glioblastoma); U87, glioma (Table 2), read-out: IC50 in suppressing proliferation): 20.5 ± 1 µM
- IC50 [4]: 2.75 ± 0.7 µM
- IC50 (LN-18 cells (glioma)): 6.64 ± 0.71 µM
- IC50 (OVCAR-3 cells; Homo sapiens, OVCAR-3, ovarian cancer (Table 2), read-out: IC50 in suppressing proliferation): 5.5 ± 1.3 µM
- IC50 (OVCAR-3 cells; Homo sapiens, OVCAR-3, ovarian cancer, 72 h in vitro treatment, SRB assay (Table 1), read-out: IC50): 5.5 µM
- IC50 [5]: 21.7 µM
- IC50 (MDA-MB-231 cells; MDA-MB-231, breast cancer (Table 2), read-out: IC50 in suppressing proliferation): 21.6 µM
- IC50 (MDA-MB-231 cells; MDA-MB-231, breast cancer, 72 h, SRB assay (Table 1), read-out: IC50): 23.6 µM
- IC50 (SKOV-3 cells; SKOV-3, ovarian cancer (Table 2), read-out: IC50 in suppressing proliferation): 26 µM
- IC50 (SKOV-3 cells; SKOV-3, ovarian cancer, 72 h, SRB assay (Table 1), read-out: IC50): 26 µM
- IC50 (T98G cells (glioma)): 25.4 ± 0.28 µM
- IC50 ([2]; CHO (Table 2), read-out: IC50 in suppressing proliferation): 73.7 ± 6 µM
- IC50 ([2]; CHO, 72 h, SRB assay (Table 1), read-out: IC50): 73.7 µM
- IC50 (3T3 fibroblast): 11.2 ± 1.1 µM
- formation of vacuoles (autophagy) (U87 glioma cells): formation of vacuoles
- IC50 (A2780 cells; Homo sapiens, A2780, ovarian cancer (Table 2), read-out: IC50 in suppressing proliferation): 4.2 µM
- IC50 (A2780 cells; Homo sapiens, A2780, ovarian cancer, 72 h, SRB assay (Table 1), read-out: IC50): 4.2 µM
- IC50 (IGROV-1 cells): 4.4 ± 1.5 µM
- IC50 (HeLa cells): 18.2 ± 2.6 µM
